From patent publication US20090098139A1, “Combination therapy for the treatment of neovascular disorders” (priority 2006, published 2009)

Legend:
[1] = test system: animal counterpart of isoform 121; test: preclinical binding to VEGF isoform 121 counterpart; details: preclinical in vitro and animal studies
[2] = test system: normal vessels of the retina; test: animal study, direct comparison with a VEGF inhibitor that blocks all isoforms: normal retinal vessels; assay type: in vivo; details: the pan-VEGF isoform inhibitor comparator altered their growth and survival
[3] = test system: animal counterpart of isoform 165; test: preclinical animal studies: abnormal blood vessel growth in the retina; assay type: in vivo; details: binding to animal counterpart of VEGF isoform 165

## pegaptanib sodium [Macugen]
[1]
  binding with the animal counterpart of isoform 121: did not bind with the animal counterpart of isoform 121 to any significant degree
[2]
  effect on the normal vessels of the retina: did not affect the normal vessels of the retina
[3]
  inhibition of abnormal blood vessel growth in the retina: highly effective in inhibiting abnormal blood vessel growth in the retina
